Measured values: patent US9951226B2, “Compound based on cyanine scaffold for diagnosis sepsis by selectively detect glutathione” (EWHA UNIVERSITY—INDUSTRY COLLABORATION FOUNDATION, priority 2014, dated 2018)

Assays:
[1] = Absorption and fluorescence spectrum over the time after reaction with glutathione; assay type: biochemical; conditions: 10 μM compound, 100 μM glutathione, HEPES pH 7.4, 10% DMSO
Method: 10 μM of the compound prepared in Example 2 and 100 μM of glutathione were added to HEPES (4-(2-hydroxyethyl)piperazine-1-ethanesulfonic acid) buffer (10 mM, pH=7.4) containing 10% dimethylsulfoxide (DMSO), followed by observation of absorption spectrum at 25° C. using UV-vis sepctra (Scinco 3000 spectrophotometer, 1 cm quartz cell) over the time. The results are shown in FIG. 8 (spectrum was photographed every 0.5 minute).
The following experiment was performed by the same manner as described in Experimental Example <5-1> except that fluorescence spectrum was observed by using RF-5310/PC fluorescence spectrometer (Shimada, 1 cm quartz cell) instead of observing absorption spectrum via UV-vis sepctra (Scinco 3000 spectrophotometer, 1 cm quartz cell) (λex=730 nm, λem=736 nm, slit:10/10 nm). The results are shown in FIG. 9 (spectrum was photographed every 0.5 minute).

[2] = system: RAW 264.7 cells; assay: Changes of glutathione concentration in the presence of an oxidant (peroxynitrite), RAW 264.7 cells; assay type: cell-based; conditions: for red fluorescence under confocal laser scanning microscope: 20 μM compound
Method: RAW 264.7 cells (macrophage cell line, Korea Cell Line Bank) were cultured in RPMI 1640 (Roswell Park Memorial Institute) supplemented with 10% heat-inactivated fetal bovine serum (FBS), 100 U/mL penicillin, and 100 U/mL streptomycin in a 37° C. 5% CO2 incubator.
RAW 264.7 cells displaying the characteristics of generating ROS (Reactive Oxygen Species) or RNS (Reactive Nitrogen Species) were treated with 1 μg/mL of lipopolysaccharide (LPS) for 20 minutes, 50 ng/mL of interferon-γ for 16 hours, and 20 μM of phorbol 12-myristate 13-acetate (PMA) for 20 minutes in order to induce the generation of endogenous feroxynitrite having the characteristics of an oxidant. Then, the cells were seeded in 35-mm glass bottomed dishes at the density of 3×10^5 cells/dish in 1640 medium. 24 hours later, the compound prepared in Example 2 was treated thereto at the concentration of 20 μM for 20 minutes. The cells were washed with DPBS (Dulbecco's Phosphate Buffered Saline) three times, followed by imaging with confocal laser scanning microscope (Fluoview 1200, Olympus, Japan). At this time, the emitting filter with the excitation wavelength of 635 nm and the band-path (BP) of 655˜755 nm was used.

[3] = system: C57BL/6 mouse; assay: Detection of glutathione in a mouse model with N-methylmaleimide (NMM), IVIS imaging; assay type: in vivo
Method: 200 μL of HEPES (4-(2-hydroxyethyl)piperazine-1-ethanesulfonic acid) buffer (10 mM, pH=7.4) containing 20 mM of N-methylmaleimide (NMM) known as a thiol blocker was administered to each C57BL/6 mouse (7˜8 weeks old, female, Jackson Laboratory) via intravenous injection. 20 minutes later, 200 μL of HEPES (4-(2-hydroxyethyl)piperazine-1-ethanesulfonic acid) buffer (10 mM, pH=7.4) containing 50 mM of the compound prepared in Example 2 was administered to the mouse via intravenous injection. 20 minutes later, the strength of fluorescence was observed by using the epifluorescence mode of In Vivo Imaging System (IVIS) spectrum (Caliper LifeSciences, USA) equipped with the filter having the wavelengths of 675 nm and 720 nm [the strength of fluorescence was measured by Living Image Software 4.3.1 (Caliper Life Sciences, USA)].

[4] = system: HeLa cells; assay: Detection of intracellular biothiol in HeLa cells, confocal laser scanning microscope; assay type: cell-based, human; conditions: 10 μM compound
Method: HeLa cells (human adenocarcinoma cells, Korea Cell Line Bank) were cultured in RPMI 1640 (Roswell Park Memorial Institute) supplemented with 10% heat-inactivated fetal bovine serum (FBS), 100 U/mL penicillin, and 100 U/mL streptomycin in a 37° C. 5% CO2 incubator. The cells were either treated or not treated with 1 mM of N-methylmaleimide (NMM) known as a thiol blocker for 20 minutes. 100 μM of each amino acid containing thiol group (R—SH) such as cysteine, homocysteine, and glutathione was added thereto. Then, the cells were seeded in 35-mm glass bottomed dishes at the density of 3×10^5 cells/dish in 1640 medium. 24 hours later, 10 μM of the compound prepared in Example 1 was added thereto, followed by culture at 37° C. for 20 minutes. The cells were washed with DPBS (Dulbecco's Phosphate Buffered Saline) twice to eliminate the remaining compound, followed by imaging with confocal laser scanning microscope (Fluoview 1200, Olympus, Japan). At this time, the emitting filter with the excitation wavelength of 635 nm and the band-path (BP) of 655˜755 nm was used.

[5] = system: neutrophils; assay: Capacity of diagnosing sepsis: bone marrow neutrophils infected with GFP tagged Pseudomonas Aeruginosa 01 (PA01); assay type: cell-based, mouse
Method: Neutrophils were extracted from the bone marrow of C57BL/6 mouse (7˜8 weeks old, female, Jackson Laboratory). The cells were infected with green fluorescent protein (GFP) tagged Pseudomonas Aeruginosa 01 (PA01) that is the causing bacteria of sepsis. 24 hours later, 10 μM of the compound prepared in Example 2 was added thereto, followed by reaction at 37° C. for 20 minutes. At this time, the emitting filter with the excitation wavelength of 635 nm and the band-path (BP) of 655˜755 nm was used.

[6] = mouse treated with NMM together with the compound

CCCN1/C(=C/C=C2\CCCC(/C=C/C3=[N+](CCC)c4ccccc4C3(C)C)=C2N2CCN(S(=O)(=O)c3cccc4c(N(C)C)cccc34)CC2)C(C)(C)c2ccccc21.[I-] [Example 2, 2-((E)-2-((E)-3-((E)-2-(3,3-dimethyl-1-propylindolin-2-ylidene)ethylidene)-2-(4-(5-(dimethylamino)naphthalene-1-ylsulfonyl)piperazine-1-yl)cyclohex-1-enyl)binyl)-3,3-dimethyl-1-propyl-3H-indolium iodide]
time to maximum fluorescence signal at 736 nm [1]: ≤ 15 min
time to minimum absorption signal at 750 nm ([1]; 25° C.): ≤ 15 min
red fluorescence under confocal laser scanning microscope ([2]; RAW 264.7 cells with induced peroxynitrite (LPS, interferon-γ, PMA)): red fluorescence was not observed
red fluorescence under confocal laser scanning microscope ([2]; RAW 264.7 cells, 20 minutes): strong red fluorescence
reaction to oxidized glutathione, glutathione disulfide (GSSG) ([2]; RAW 264.7 cells, peroxynitrite): did not react
red fluorescence in liver, kidney, lung, and spleen, IVIS spectrum [3, 6]: red fluorescence was not observed
red fluorescence of the mouse, IVIS spectrum [3, 6]: red fluorescence was not observed
red fluorescence in liver, kidney, lung, and spleen, IVIS spectrum ([3]; mouse treated with the compound alone): strong red fluorescence was observed
red fluorescence of the mouse, IVIS spectrum ([3]; mouse treated with the compound alone, intravenous injection, 20 minutes): strong red fluorescence was observed
red fluorescence under confocal laser scanning microscope ([4]; HeLa cells pre-treated with NMM, 100 μM cysteine added): red fluorescence was not detected
red fluorescence under confocal laser scanning microscope ([4]; HeLa cells pre-treated with NMM, 100 μM glutathione added): strong red fluorescence was observed
red fluorescence under confocal laser scanning microscope ([4]; HeLa cells pre-treated with NMM, 100 μM homocysteine added): red fluorescence was not detected
red fluorescence under confocal laser scanning microscope ([4]; HeLa cells pre-treated with thiol blocker NMM 1 mM): red fluorescence was not observed
red fluorescence under confocal laser scanning microscope ([4]; HeLa cells, 20 minutes): strong red fluorescence was observed
red fluorescence indicating glutathione level in the red fluorescence channel ([5]; neutrophils infected with GFP tagged PA01, 10 μM compound): reduced
red fluorescence in the red fluorescent channel ([5]; neutrophils not-infected with GFP tagged PA01, 10 μM compound): strong red fluorescence was detected
